Reference: patent publication US20050261298A1, “Methods of treating conditions associated with an Edg-7 receptor” (priority 2002, published 2005)

How the values were obtained:
Edg-5 [1] = biological target: T1, Edg-5 (Homo sapiens, UniProt O95136); test: Calcium mobilization assay (FLIPR), inhibition of S1P-stimulated calcium increase; assay type: cell-based; conditions: HTC cells expressing Edg-5
T1 construct: expressed in transfected cells; host or cells: HTC rat hepatoma cells

Edg-6 [2] = biological target: T2, Edg-6 (Homo sapiens, UniProt O95977); test: Calcium mobilization assay (FLIPR), inhibition of S1P-stimulated calcium increase; assay type: cell-based; conditions: HTC cells expressing Edg-6
T2 construct: expressed in transfected cells; host or cells: HTC rat hepatoma cells
T2 sequence (O95977 1-384): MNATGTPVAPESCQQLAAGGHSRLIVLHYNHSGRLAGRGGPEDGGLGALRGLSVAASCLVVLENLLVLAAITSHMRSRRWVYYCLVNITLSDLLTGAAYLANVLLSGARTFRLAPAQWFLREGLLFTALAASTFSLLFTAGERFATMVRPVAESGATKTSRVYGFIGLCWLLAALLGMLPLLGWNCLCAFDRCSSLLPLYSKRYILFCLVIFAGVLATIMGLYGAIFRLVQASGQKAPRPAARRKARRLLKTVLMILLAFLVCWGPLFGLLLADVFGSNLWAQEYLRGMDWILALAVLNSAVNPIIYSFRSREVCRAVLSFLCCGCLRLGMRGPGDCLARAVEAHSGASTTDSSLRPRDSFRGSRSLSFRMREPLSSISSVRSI

Edg-3 [3] = biological target: T3, Edg-3 (Homo sapiens, UniProt Q99500); test: as above; assay type: cell-based; conditions: HTC cells expressing Edg-3
T3 construct: expressed in transfected cells; host or cells: HTC rat hepatoma cells
T3 sequence (Q99500 whole entry): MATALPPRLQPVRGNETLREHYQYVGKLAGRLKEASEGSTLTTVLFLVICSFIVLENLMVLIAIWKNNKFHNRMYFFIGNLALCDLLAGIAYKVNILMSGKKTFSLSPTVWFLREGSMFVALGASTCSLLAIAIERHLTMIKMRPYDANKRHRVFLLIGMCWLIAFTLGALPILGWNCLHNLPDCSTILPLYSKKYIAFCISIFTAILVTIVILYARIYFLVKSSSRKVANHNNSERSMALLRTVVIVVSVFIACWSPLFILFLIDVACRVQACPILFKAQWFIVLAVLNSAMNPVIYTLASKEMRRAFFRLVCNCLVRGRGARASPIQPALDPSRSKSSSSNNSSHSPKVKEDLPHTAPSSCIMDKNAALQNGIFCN

human Edg 7 receptors [4] = biological target: T4, human Edg 7 receptors (Homo sapiens, UniProt Q9UBY5); test: Calcium mobilization assay (FLIPR), inhibition of LPA response; assay type: cell-based; conditions: for IC50: HTC cells expressing human Edg 7; for Fold Selectivity: inhibitory selectivity for Edg-7 relative to other Edg receptors
T4 construct: expressed in transfected cells
T4 sequence (Q9UBY5 1-353): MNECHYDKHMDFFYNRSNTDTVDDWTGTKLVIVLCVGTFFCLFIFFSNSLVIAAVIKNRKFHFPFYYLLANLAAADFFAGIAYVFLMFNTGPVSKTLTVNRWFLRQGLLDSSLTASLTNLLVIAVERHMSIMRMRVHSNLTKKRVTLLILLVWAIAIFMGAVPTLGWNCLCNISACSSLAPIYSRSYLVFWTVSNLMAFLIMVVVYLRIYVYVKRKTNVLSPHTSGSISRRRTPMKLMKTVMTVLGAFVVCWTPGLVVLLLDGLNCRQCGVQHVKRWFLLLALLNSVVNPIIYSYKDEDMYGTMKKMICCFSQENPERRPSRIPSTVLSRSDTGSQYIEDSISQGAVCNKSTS
Description: (§1) The compounds were tested in HTC cells expressing human Edg 7 receptors. […] The compounds are tested in this recombinant system first, and subsequently tested in cell lines expressing Edg-7 (in addition to other Edg receptors).
The radioligand binding assays were conducted as described in Section 6.15 (Example 15).
(§2) LPA receptors such as Edg-7, couple to calcium effector pathways, and result in increases in intracellular calcium following receptor activation (An, 1998, J. Cell. Biochem Supp. 30-31:147-157). This biological response lends itself to a very efficient, high-throughput screen using a Fluorescence Imaging Plate Reader (FLIPR; Molecular Devices, Sunnyvale, Calif.). The FLIPR system is a real-time, cell-based assay system with continuous fluorescence detection using a cooled CCD camera. The FLIPR system was used to developing an Edg-7 receptor screen. Rat hepatoma cells stably expressing Edg-7 receptor were plated on 384-well plates and loaded with a calcium dye loading kit (Molecular Devices, Sunnyvale, Calif.) for 1 hour at room temperature. Cells were then placed on the FLIPR^384 (Molecular Devices, Sunnyvale, Calif.) and excited by an argon laser at […]. The data for the entire 384-well plate was updated every second. An integrated robotic pipettor allowed for simultaneous compound addition into each individual well in the plate

Edg-4 [5] = biological target: T5, Edg-4 (Homo sapiens, UniProt Q9HBW0); test: Calcium mobilization assay (FLIPR), inhibition of LPA-stimulated calcium increase; assay type: cell-based; conditions: HTC cells expressing Edg-4
Target sequence in this assay (Q9HBW0 1-344 limits assumed): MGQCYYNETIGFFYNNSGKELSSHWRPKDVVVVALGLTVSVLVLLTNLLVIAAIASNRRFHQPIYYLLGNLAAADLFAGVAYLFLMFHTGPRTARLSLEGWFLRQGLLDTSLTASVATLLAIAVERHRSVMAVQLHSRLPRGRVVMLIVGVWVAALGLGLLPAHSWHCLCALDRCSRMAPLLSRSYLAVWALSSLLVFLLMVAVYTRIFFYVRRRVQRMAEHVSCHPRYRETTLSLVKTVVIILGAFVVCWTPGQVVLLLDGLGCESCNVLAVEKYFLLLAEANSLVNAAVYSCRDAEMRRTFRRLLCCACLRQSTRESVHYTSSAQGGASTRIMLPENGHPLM

Edg-2 [6] = biological target: T6, Edg-2 (Homo sapiens, UniProt Q92633); test: as above; assay type: cell-based; conditions: HTC cells expressing Edg-2
T6 construct: expressed in transfected cells; host or cells: HTC rat hepatoma cells
T6 sequence (Q92633 whole entry): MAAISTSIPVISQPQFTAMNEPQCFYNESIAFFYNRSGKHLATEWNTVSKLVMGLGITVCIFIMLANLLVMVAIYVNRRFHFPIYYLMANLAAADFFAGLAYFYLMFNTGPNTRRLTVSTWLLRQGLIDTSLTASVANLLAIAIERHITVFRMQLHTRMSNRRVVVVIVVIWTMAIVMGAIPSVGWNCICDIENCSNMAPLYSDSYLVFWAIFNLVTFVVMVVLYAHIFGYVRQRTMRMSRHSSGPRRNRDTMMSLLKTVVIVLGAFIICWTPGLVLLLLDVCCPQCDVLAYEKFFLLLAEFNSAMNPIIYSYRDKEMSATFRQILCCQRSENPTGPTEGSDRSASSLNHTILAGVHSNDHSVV

Edg-8 [7] = biological target: T7, Edg-8 (Homo sapiens, UniProt Q9H228); test: Calcium mobilization assay (FLIPR), inhibition of S1P-stimulated calcium increase; assay type: cell-based; conditions: HTC cells expressing Edg-8
T7 construct: expressed in transfected cells; host or cells: HTC rat hepatoma cells
T7 sequence (Q9H228 whole entry): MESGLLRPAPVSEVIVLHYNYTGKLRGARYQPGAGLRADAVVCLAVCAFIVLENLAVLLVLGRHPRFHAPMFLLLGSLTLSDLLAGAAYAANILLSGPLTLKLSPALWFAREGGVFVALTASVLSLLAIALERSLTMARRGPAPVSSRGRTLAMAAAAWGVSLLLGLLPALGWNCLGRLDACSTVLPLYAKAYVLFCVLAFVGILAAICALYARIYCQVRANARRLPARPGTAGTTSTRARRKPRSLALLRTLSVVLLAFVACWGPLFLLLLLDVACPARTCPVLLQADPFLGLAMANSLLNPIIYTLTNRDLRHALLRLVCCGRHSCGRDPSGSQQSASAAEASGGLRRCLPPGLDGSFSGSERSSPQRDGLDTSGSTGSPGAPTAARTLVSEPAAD

Edg-1 [8] = biological target: T8, Edg-1 (Homo sapiens, UniProt P21453); test: as above; assay type: cell-based; conditions: HTC cells expressing Edg-1
T8 construct: expressed in transfected cells; host or cells: HTC rat hepatoma cells
T8 sequence (P21453 whole entry): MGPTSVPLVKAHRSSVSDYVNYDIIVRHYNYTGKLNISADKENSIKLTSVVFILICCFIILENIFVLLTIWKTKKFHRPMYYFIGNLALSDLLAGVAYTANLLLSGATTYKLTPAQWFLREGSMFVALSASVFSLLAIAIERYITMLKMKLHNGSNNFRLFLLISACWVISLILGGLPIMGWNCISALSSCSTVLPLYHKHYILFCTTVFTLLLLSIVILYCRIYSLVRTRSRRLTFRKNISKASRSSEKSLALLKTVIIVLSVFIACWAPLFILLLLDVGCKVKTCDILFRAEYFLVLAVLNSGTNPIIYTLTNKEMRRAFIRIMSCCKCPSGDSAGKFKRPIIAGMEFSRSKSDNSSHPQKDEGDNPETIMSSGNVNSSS

human Edg 7 receptors [9] = biological target: T4, human Edg 7 receptors; test: Calcium mobilization assay (FLIPR), agonist stimulation of calcium increase; assay type: cell-based; conditions: for EC50 / specific activation of the Edg-7 receptor: HTC cells expressing human Edg 7; for Fold Selectivity: agonist selectivity for Edg-7 relative to other Edg receptors and null cells
Description: as §1, §2

Edg-1 [10] = biological target: T8, Edg-1; test: as above; assay type: cell-based; conditions: HTC cells expressing Edg-1; for stimulation of calcium increases, Edg-1: concentrations as high as 25 µM
Edg-5 [11] = biological target: T1, Edg-5; test: as above; assay type: cell-based; conditions: HTC cells expressing Edg-5; for stimulation of calcium increases, Edg-5: concentrations as high as 25 µM
Edg-3 [12] = biological target: T3, Edg-3; test: as above; assay type: cell-based; conditions: HTC cells expressing Edg-3; for stimulation of calcium increases, Edg-3: concentrations as high as 25 µM
Edg-4 [13] = biological target: T5, Edg-4; test: as above; assay type: cell-based; conditions: HTC cells expressing Edg-4; for stimulation of calcium increases, Edg-4: concentrations as high as 25 µM
Target sequence in this assay (Q9HBW0 1-340 limits assumed): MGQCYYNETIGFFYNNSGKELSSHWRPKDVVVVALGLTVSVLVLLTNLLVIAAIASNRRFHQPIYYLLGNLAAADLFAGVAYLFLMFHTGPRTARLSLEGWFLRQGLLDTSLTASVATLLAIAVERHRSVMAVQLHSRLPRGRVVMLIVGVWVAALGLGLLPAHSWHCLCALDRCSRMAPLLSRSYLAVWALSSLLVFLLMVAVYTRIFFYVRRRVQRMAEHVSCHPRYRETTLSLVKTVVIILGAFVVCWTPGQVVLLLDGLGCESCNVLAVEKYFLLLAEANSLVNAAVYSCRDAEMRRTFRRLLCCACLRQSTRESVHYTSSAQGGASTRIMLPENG

untransfected HTC cells = test: Calcium mobilization assay (FLIPR), agonist stimulation in null cells; assay type: cell-based, rat; conditions: for EC50: Rattus norvegicus; for stimulation of calcium increases, untransfected HTC cells: concentrations as high as 25 µM
Edg-8 [14] = biological target: T7, Edg-8; test: Calcium mobilization assay (FLIPR), agonist stimulation of calcium increase; assay type: cell-based; conditions: HTC cells expressing Edg-8; for stimulation of calcium increases, Edg-8: concentrations as high as 25 µM
Edg-6 [15] = biological target: T2, Edg-6; test: as above; assay type: cell-based; conditions: HTC cells expressing Edg-6; for stimulation of calcium increases, Edg-6: concentrations as high as 25 µM
Edg-2 [16] = biological target: T6, Edg-2; test: as above; assay type: cell-based; conditions: HTC cells expressing Edg-2; for stimulation of calcium increases, Edg-2: concentrations as high as 25 µM

T1 sequence (O95136 whole entry): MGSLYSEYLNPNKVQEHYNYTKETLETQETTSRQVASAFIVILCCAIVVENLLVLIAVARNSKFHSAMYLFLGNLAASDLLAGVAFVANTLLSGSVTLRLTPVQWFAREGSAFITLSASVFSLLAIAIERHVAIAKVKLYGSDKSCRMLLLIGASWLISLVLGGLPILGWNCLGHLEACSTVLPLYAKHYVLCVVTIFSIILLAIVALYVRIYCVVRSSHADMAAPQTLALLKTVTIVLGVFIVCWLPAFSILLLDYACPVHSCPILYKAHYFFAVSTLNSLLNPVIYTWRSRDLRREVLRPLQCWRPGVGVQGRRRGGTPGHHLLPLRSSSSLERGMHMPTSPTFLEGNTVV

O=C(O)COc1ccc(Br)cc1/C=C1\S/C(=N\c2ccc(Cl)cc2)NC1=O (racemic) [Compound 107, 4-Bromo-2-[2-(4-chlorophenylimino)-4-oxothiazolidin-5-ylidenemethyl]phenoxyacetic acid]
IC50 (Edg-5 [1]): > 20 µM
melting point: 272 °C (dec.)
IC50 (Edg-6 [2]): > 20 µM
IC50 (Edg-3 [3]): > 20 µM
IC50 (human Edg 7 receptors [4]): 7.73 µM
Fold Selectivity (human Edg 7 receptors [4]): >2.6 Fold
IC50 (Edg-4 [5]): > 20 µM
IC50 (Edg-2 [6]): > 20 µM
IC50 (Edg-8 [7]): > 20 µM
IC50 (Edg-1 [8]): > 20 µM

Cc1ccc(S(=O)(=O)N=C2NC(=O)/C(=C3/C(=O)Nc4ccccc43)S2)cc1 [Compound 105, 4-Methyl-N-[4-oxo-5-(2-oxo-1,2-dihydroindol-3-ylidene)thiazolidin-2-ylidene]-benzenesulfonamide]
IC50 (Edg-5 [1]): > 20 µM
melting point: 320 °C (dec.)
IC50 (Edg-6 [2]): > 20 µM
IC50 (Edg-3 [3]): > 20 µM
selective inhibition of the Edg-7 receptor (FIG. 1, FIG. 2) (human Edg 7 receptors [4]; HTC cells expressing Edg-7): exhibited selectivity
IC50 (human Edg 7 receptors [4]): 0.52 µM
Fold Selectivity (human Edg 7 receptors [4]): >38.5 Fold
IC50 (Edg-4 [5]): > 20 µM
IC50 (Edg-2 [6]): > 20 µM
IC50 (Edg-8 [7]): > 20 µM
IC50 (Edg-1 [8]): > 20 µM

COc1ccc(-c2nc3ccc(C(=O)O)cc3nc2-c2ccc(OC)cc2)cc1 [Compound 129, 2,3-bis-(4-Methoxyphenyl) quinoxaline-6-carboxylic acid]
EC50 (human Edg 7 receptors [9]): 0.37 µM
specific activation of the Edg-7 receptor (human Edg 7 receptors [9]): specifically activate
Fold Selectivity (human Edg 7 receptors [9]): >68 Fold
melting point: 284 to 285 °C
EC50 (Edg-1 [10]): > 25 µM
stimulation of calcium increases, Edg-1 (Edg-1 [10]): did not stimulate
EC50 (Edg-5 [11]): > 25 µM
stimulation of calcium increases, Edg-5 (Edg-5 [11]): did not stimulate
EC50 (Edg-3 [12]): > 25 µM
stimulation of calcium increases, Edg-3 (Edg-3 [12]): did not stimulate
EC50 (Edg-4 [13]): > 25 µM
stimulation of calcium increases, Edg-4 (Edg-4 [13]): did not stimulate
EC50 (untransfected HTC cells): > 25 µM
stimulation of calcium increases, untransfected HTC cells (untransfected HTC cells): did not stimulate
EC50 (Edg-8 [14]): > 25 µM
stimulation of calcium increases, Edg-8 (Edg-8 [14]): did not stimulate
EC50 (Edg-6 [15]): > 25 µM
stimulation of calcium increases, Edg-6 (Edg-6 [15]): did not stimulate
EC50 (Edg-2 [16]): > 25 µM
stimulation of calcium increases, Edg-2 (Edg-2 [16]): did not stimulate

CCCCCC(CCCCC)=N/N=C1\NC(=O)C(CC(=O)O)S1 (stereo not drawn) [Compound 127, 4-Oxo-2-[(1-pentylhexylidene)hydrazono]thiazolidin-5-ylacetic acid]
EC50 (human Edg 7 receptors [9]): 0.23 µM
specific activation of the Edg-7 receptor (human Edg 7 receptors [9]): specifically activate
Fold Selectivity (human Edg 7 receptors [9]): >109 Fold
melting point: 134 to 135 °C
EC50 (Edg-1 [10]): > 25 µM
stimulation of calcium increases, Edg-1 (Edg-1 [10]): did not stimulate
EC50 (Edg-5 [11]): > 25 µM
stimulation of calcium increases, Edg-5 (Edg-5 [11]): did not stimulate
EC50 (Edg-3 [12]): > 25 µM
stimulation of calcium increases, Edg-3 (Edg-3 [12]): did not stimulate
EC50 (Edg-4 [13]): > 25 µM
stimulation of calcium increases, Edg-4 (Edg-4 [13]): did not stimulate
EC50 (untransfected HTC cells): > 25 µM
stimulation of calcium increases, untransfected HTC cells (untransfected HTC cells): did not stimulate
EC50 (Edg-8 [14]): > 25 µM
stimulation of calcium increases, Edg-8 (Edg-8 [14]): did not stimulate
EC50 (Edg-6 [15]): > 25 µM
stimulation of calcium increases, Edg-6 (Edg-6 [15]): did not stimulate
EC50 (Edg-2 [16]): > 25 µM
stimulation of calcium increases, Edg-2 (Edg-2 [16]): did not stimulate

Cc1cc(C)c2c(c1)Cc1ccccc1S2(=O)=O [Compound 133, 2,4-Dimethyl-9H-thioxanthene 10,10-dioxide]
EC50 (human Edg 7 receptors [9]): 1.61 µM
specific activation of the Edg-7 receptor (human Edg 7 receptors [9]): specifically activate
Fold Selectivity (human Edg 7 receptors [9]): >15.5 Fold
melting point: 103 to 105 °C
EC50 (Edg-1 [10]): > 25 µM
stimulation of calcium increases, Edg-1 (Edg-1 [10]): did not stimulate
EC50 (Edg-5 [11]): > 25 µM
stimulation of calcium increases, Edg-5 (Edg-5 [11]): did not stimulate
EC50 (Edg-3 [12]): > 25 µM
stimulation of calcium increases, Edg-3 (Edg-3 [12]): did not stimulate
EC50 (Edg-4 [13]): > 25 µM
stimulation of calcium increases, Edg-4 (Edg-4 [13]): did not stimulate
EC50 (untransfected HTC cells): > 25 µM
stimulation of calcium increases, untransfected HTC cells (untransfected HTC cells): did not stimulate
EC50 (Edg-8 [14]): > 25 µM
stimulation of calcium increases, Edg-8 (Edg-8 [14]): did not stimulate
EC50 (Edg-6 [15]): > 25 µM
stimulation of calcium increases, Edg-6 (Edg-6 [15]): did not stimulate
EC50 (Edg-2 [16]): > 25 µM
stimulation of calcium increases, Edg-2 (Edg-2 [16]): did not stimulate
